The values below come from ChEMBL document CHEMBL1158217, “Tetranortriterpenoids from Ruagea glabra” (1996).

For the test, the system named is Spodoptera frugiperda. Put plainly: Antifeedant activity against Spodoptera frugiperda final instar larvae at 100 ppm after 18 hrs by glass fiber disk method. The test is classed as functional. Also on record: unit not given here.

With `C=C1[C@@H]2CC[C@@]3(C)[C@H](c4ccoc4)OC(=O)C[C@]13O[C@H]1CC(=O)C(C)(C)[C@H](CC(=O)OC)[C@]12C` [METHYLANGOLENSATE], the Activity came out at 66.4.
The figure for `COC(=O)C[C@H]1C(C)(C)[C@H](OC(=O)C(C)C)[C@H]2C(=O)[C@]1(C)[C@H]1CC[C@]3(C)[C@@H](CC(=O)O[C@H]3c3ccoc3)[C@]13O[C@H]23` [RUAGEANIN A] is 72.6; for `COC(=O)C[C@H]1C(C)(C)[C@H](OC(C)=O)[C@H]2C(=O)[C@]1(C)[C@H]1CC[C@]3(C)[C@@H](CC(=O)O[C@H]3c3ccoc3)[C@]13O[C@H]23` [XYLOCARPIN] it is 77.8; for `C/C=C(\C)C(=O)O[C@H]1C(C)(C)[C@H](CC(=O)OC)[C@]2(C)C(=O)[C@@]1(O)[C@H]1O[C@]13[C@@H]1CC(=O)O[C@@H](c4ccoc4)[C@]1(C)CC[C@H]23` [RUAGEANIN B] it is 86.3.
